Test results taken from patent US20090287077A1, “SYSTEM FOR DETECTING FUNCTION OF INTESTINAL BARRIER AND METHOD FOR USING THE SAME” (NATIONAL TAIWAN UNIVERSITY, priority 2008, published 2009).

Test: Plasma concentration of Gd-containing contrast agent after injection into jejunal pouch (MRI of plasma samples, standard curve)
Type: in vivo, rat
Details: for concentration of the Gd-containing contrast agent in the plasma: 0.5 ml (0.5 M) into jejunal pouch, mean±SEM
Procedure: Male Wistar rats weighed 250 g to 300 g were used in this experiment. The rats were randomly divided into 2 groups: sham-operation control group (CON) and ischemia/reperfusion group (I/R). Before the experiment, the rats were fasted overnight but allowed to drink water ad lib. The experiment was conducted in a sterile environment. The rats in the two groups were anethesized by intraperitoneal injection of ethyl urethane (1.2 g/kg), and then subjected to abdominal median incision. A jejunal pouch of 10 cm was made at 10 cm from the end of suspensory ligament of duodenum. A 1 ml syringe with a PE-10 catheter was intubated to one end of the jejunal pouch and 0.5 ml of Krebs buffer solution was slowly injected into the pouch from the syringe. The formula of Krebs buffer solution was as follows: 115 mmol/L of NaCl, 8 mmol/L of KCl, 1.25 mmol/L of Ca Cl2, 1.2 mmol/L of MgCl2, 2.0 mmol/L of KH2PO4 and 25 mmol/L of NaHCO3, with a pH of 7.33 to 7.37. […] The CON rats were subjected to abdominal median incision but not subjected to SMA closure. Thereafter, the tissue samples were taken from the rats of these 2 groups for histologic examination and analysis of bacterial translocation (as shown below). […]
In order to determine the rate of the Gd-containing contrast agent transferred from jejunal lumen into systemic circulation, a PE-50 catheter was intubated into left femoral artery before the surgical operation. […] The intensity of signal indication of each plasma sample and of each standard solution was calculated by using a determining device to circle a region of 4 mm^2 in MRI image and to calculate the intensity of signal indication in the region (mm^2). […] The concentration of the Gd-containing contrast agent in the plasma samples at each time point was calculated, using the standard curve. The flow-out rate of the Gd-containing contrast agent flowing from intestinal lumen to systemic circulation at different stages of reperfusion was calculated and expressed in mM/min.

## CNC(=O)CN(CCN(CCN(CC(=O)[O-])CC(=O)NC)CC(=O)[O-])CC(=O)[O-].[Gd+3] [Gd-containing contrast agent]
CON rats (sham operation), 15 minutes
  concentration of the Gd-containing contrast agent in the plasma: 6 ± 4 µM
I/R rats (20 min SMA closure), after 15 minutes of reperfusion
  concentration of the Gd-containing contrast agent in the plasma: 220 ± 44 µM
Stage of 0-15 minutes of reperfusion
  flow-out rate of the Gd-containing contrast agent from intestinal lumen to systemic circulation, I/R rats versus CON rats: significantly higher than that in CON rats
